ChEMBL document CHEMBL1201862, “PubChem BioAssay data set” (2004)
Activity calls are given as the source filed them.

Legend:
INS1 = assay: beta cell apoptosis inhibitors, cytokine rescue, dose response, luminescence, retest (AID 449756); type: functional, cell-based; conditions: Rattus norvegicus;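 also: cell death triggered by IL-1 beta plus TNF-alpha plus IFN-gamma mixture; protective hits raise ATP signal compared with cytokine alone wells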
Cytochrome P450 2C19 = Cytochrome P450 2C19 (Homo sapiens, UniProt P33261); assay: Cytochrome panel assay with activity outcomes. Panel member name: p450-cyp2c19 Compounds with AC50 equal or less than 10 uM are considered active; type: functional; conditions: read-out: AC50
Cytochrome P450 2C19, sequence (P33261 whole entry): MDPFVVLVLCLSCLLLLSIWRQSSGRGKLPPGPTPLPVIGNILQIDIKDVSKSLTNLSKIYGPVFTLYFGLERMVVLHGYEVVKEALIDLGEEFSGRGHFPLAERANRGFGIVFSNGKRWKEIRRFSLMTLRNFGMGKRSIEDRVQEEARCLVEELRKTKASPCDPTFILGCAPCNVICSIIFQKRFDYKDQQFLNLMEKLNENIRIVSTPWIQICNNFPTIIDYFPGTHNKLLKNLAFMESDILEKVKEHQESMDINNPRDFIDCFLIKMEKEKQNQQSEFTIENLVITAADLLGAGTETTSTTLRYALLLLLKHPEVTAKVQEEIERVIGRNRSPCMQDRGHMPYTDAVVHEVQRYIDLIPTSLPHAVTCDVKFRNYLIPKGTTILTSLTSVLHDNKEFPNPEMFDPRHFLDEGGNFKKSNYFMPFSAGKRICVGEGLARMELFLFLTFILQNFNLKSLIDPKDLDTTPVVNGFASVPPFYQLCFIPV

Cytochrome P450 2C9 = Cytochrome P450 2C9 (Homo sapiens, UniProt P11712)
Cytochrome P450 2C9, sequence (P11712 whole entry): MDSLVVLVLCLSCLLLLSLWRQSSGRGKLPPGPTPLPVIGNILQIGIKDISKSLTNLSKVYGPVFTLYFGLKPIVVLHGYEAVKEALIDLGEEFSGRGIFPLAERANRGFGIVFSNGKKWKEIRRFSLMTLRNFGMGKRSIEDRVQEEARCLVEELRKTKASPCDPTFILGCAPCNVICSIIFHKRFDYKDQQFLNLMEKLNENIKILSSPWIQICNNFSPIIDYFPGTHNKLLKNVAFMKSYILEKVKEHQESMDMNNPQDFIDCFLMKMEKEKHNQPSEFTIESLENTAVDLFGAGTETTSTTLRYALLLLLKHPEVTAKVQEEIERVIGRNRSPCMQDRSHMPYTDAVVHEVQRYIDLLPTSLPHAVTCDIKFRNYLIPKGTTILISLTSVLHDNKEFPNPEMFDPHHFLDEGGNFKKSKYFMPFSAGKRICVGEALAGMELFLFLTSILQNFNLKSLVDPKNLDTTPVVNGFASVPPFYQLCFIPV

[1] = molecular target: T1, Heat shock factor protein 1 (Mus musculus, UniProt P38532); assay: inhibition of MG132-induced HSE-luciferase signal, confirmation, cell-based, NIH3T3, luminescence, dose retest (AID 2382); type: functional;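 also: NIH3T3 fibroblasts with HSF1-driven luciferase reporter stressed by proteasome inhibitor MG132; luminescence from HSF1-driven luciferase expression after 8 hours of MG132 stress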
T1 sequence (P38532 whole entry): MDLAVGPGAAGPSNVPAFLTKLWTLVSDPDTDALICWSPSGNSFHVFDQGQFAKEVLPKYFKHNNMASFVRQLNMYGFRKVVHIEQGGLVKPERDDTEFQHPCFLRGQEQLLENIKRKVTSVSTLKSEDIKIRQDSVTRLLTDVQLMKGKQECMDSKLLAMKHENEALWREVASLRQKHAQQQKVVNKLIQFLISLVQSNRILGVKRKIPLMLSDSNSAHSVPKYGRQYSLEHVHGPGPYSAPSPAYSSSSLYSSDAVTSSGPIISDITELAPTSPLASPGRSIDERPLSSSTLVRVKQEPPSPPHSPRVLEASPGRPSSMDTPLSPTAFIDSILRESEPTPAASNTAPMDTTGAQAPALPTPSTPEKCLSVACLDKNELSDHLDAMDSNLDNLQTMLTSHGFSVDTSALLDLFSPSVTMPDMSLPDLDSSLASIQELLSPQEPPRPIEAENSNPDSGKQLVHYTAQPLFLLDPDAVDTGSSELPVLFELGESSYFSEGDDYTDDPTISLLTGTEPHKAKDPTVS

[2] = molecular target: T2, Corticotropin-releasing factor receptor 2/Corticotropin-releasing factor-binding protein (Homo sapiens, UniProt P24387+Q13324); assay: activators of CRF receptor 2 with binding protein – uHTS hits, confirmation (AID 602473); type: functional; conditions: read-out: EC50_Mean
T2 sequence (Q13324 whole entry): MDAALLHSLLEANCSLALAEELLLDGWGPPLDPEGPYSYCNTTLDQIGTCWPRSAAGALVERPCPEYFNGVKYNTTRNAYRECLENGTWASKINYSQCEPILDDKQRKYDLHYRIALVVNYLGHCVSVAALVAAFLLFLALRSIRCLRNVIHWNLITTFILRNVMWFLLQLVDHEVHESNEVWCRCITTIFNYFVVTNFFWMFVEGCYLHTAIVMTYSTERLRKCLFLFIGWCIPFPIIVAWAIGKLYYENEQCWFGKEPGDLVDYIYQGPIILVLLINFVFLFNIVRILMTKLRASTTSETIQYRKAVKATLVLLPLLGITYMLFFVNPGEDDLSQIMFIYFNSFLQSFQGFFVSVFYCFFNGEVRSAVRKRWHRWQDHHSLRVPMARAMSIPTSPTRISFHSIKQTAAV
T2 sequence (P24387 whole entry): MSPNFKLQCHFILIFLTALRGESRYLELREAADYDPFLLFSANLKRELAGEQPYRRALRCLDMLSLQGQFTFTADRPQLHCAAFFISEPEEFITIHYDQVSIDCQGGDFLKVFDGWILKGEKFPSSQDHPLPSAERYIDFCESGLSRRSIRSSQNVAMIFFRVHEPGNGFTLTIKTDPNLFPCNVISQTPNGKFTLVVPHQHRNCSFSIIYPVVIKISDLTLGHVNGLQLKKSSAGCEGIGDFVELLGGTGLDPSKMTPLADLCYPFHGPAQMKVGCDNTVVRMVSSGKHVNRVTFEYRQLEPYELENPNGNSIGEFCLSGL

[3] = molecular target: T2, Corticotropin-releasing factor receptor 2/Corticotropin-releasing factor-binding protein; assay: Dose Response confirmation of uHTS hits for small molecule antagonists of the CRF-binding protein and CRF-R2 receptor complex.; type: functional; conditions: read-out: IC50_Mean
[4] = cytotoxicity toward NIH3T3 fibroblasts, dose response, counter-screen, cell-based, ATP luminescence, mouse fibroblasts (AID 2010); type: functional;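 also: cells exposed to compound for about 90 hours before reading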
[5] = inhibitors of intracellular T. cruzi replication, confirmation, NIH3T3 host cells, beta-gal luminescence (AID 2044); type: functional, cell-based;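 also: intracellular parasites grown in NIH/3T3 mouse fibroblasts as host cells; luminescent beta-galactosidase reporter signal from transgenic T. cruzi replicating inside host cells; inhibitors lower the luminescence signal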
Cytochrome P450 1A2 = molecular target: T3, Cytochrome P450 1A2 (Homo sapiens, UniProt P05177);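 also: PubChem cytochrome P450 panel assay, CYP1A2 panel member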
T3 sequence (P05177 whole entry): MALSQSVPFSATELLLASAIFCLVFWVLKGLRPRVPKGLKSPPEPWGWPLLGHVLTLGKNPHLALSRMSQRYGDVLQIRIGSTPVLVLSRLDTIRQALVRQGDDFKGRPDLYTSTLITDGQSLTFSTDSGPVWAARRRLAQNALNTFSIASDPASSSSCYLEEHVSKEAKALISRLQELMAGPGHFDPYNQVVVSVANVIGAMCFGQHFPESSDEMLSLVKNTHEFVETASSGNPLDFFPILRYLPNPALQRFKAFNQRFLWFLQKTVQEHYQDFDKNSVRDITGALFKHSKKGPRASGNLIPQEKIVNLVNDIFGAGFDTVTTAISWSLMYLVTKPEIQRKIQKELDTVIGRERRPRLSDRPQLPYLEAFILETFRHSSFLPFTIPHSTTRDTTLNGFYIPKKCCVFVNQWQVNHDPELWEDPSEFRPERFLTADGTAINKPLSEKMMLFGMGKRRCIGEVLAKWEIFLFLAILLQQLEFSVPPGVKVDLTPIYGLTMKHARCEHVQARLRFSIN

| EC50 [1] | EC50 [2] | IC50 [3] | Compound | further results |
| --- | --- | --- | --- | --- |
|  |  |  | Cc1ccc(N(CC(=O)Nc2cc(C)cc(C)c2)S(=O)(=O)c2c(C)noc2C)cc1 | AC50 (INS1): 8.43 µM (active) |
|  |  |  | CCCNC(=O)OC[C@@H]1O[C@H](CCO/N=C(\C)CCC(=O)OC[C@@H]2O[C@H](c3ccccc3)C=C[C@@H]2Oc2ccc(OC)cc2)C=C[C@@H]1Oc1ccc(OC)cc1 | AC50 (Cytochrome P450 2C19): 0.0794 µM (inconclusive); AC50 (Cytochrome P450 2C9): 3.98 µM (inconclusive) |
| > 195 µM (not active) |  |  | COC(=O)c1nc(Cl)c(Cl)c(N)c1Cl |  |
|  | > 53 µM (inactive) | > 47.1 µM (inactive) | Cc1ccc(NC(S)=NCc2ccccn2)cc1 |  |
| > 195 µM (not active) |  |  | COc1cccc(C2CC(c3ccccc3)n3ncnc3N2)c1 (centres undefined) |  |
| 142 µM (active) |  |  | CC(O)CNCCCOc1ccc(Cl)cc1C(C)(C)C (centres undefined) |  |
|  |  |  | FC(F)(F)c1ccccc1N=C(S)N1CCN(Cc2ccc3c(c2)OCO3)CC1 | AC50 (INS1): 7.02 µM (active) |
|  | > 53 µM (inactive) | > 47.1 µM (inactive) | NS(=O)(=O)c1ccc(NC(S)=Nc2ccc(F)c(F)c2)cc1 |  |
|  |  |  | O=C(Nc1ccc(N2CCN(Cc3ccccc3Cl)CC2)cc1)c1cccnc1 | AC50 (INS1): 4.75 µM (active) |
| 30.2 µM (active) |  |  | COc1ccc(-n2cccc2/C=C2/NC(=O)N(c3cccc(Cl)c3)C2=O)cc1 |  |
| > 195 µM (not active) |  |  | COc1ccc(C(=O)COC(=O)CCN2C(=O)C3C4CC(C(Br)C4Br)C3C2=O)cc1 (centres undefined) |  |
| > 195 µM (not active) |  |  | Cc1ccc(S(=O)(=O)NC(C)(C)CSc2nncn2N)cc1 |  |
| > 195 µM (not active) |  |  | CC(=O)Nc1cc[n+](C(C)C(=O)c2ccccc2)cc1 (centres undefined) |  |
|  | > 53 µM (inactive) | > 47.1 µM (inactive) | CC(C)(C)c1ccc(SCCc2cccnc2)cc1 |  |
|  | > 53 µM (inactive) | > 47.1 µM (inactive) | Cc1ccc(S(=O)(=O)N(CC(=O)NCc2ccco2)Cc2ccccc2F)cc1 |  |
| > 195 µM (not active) |  |  | CC(C)C[C@H](NC(=O)N1CCCCCC1)C(=O)O |  |
| > 195 µM (not active) |  |  | CC1CCCN(C(=O)CSc2nnc(-c3ccc(O)cc3)o2)C1 (centres undefined) |  |
|  | > 53 µM (inactive) | > 47.1 µM (inactive) | CCOC(=O)NC(O)C(=O)c1cccs1 (centres undefined) |  |
|  | > 53 µM (inactive) | > 47.1 µM (inactive) | Cc1nn(C)c(Oc2ccc(Cl)cc2)c1C(=O)O |  |
|  |  |  | COc1ccc(-[n+]2cc(-c3ccccc3)n3c2CCCCC3)cc1 | AC50 (INS1): 1.66 µM (active); EC50 [4]: > 30 µM (not active); EC50 [5]: 0.453 µM (active) |
|  |  |  | COc1cccc(Cn2c(=O)c(-c3cn(C)c4ccccc34)nc3cnc(OC)nc32)c1 | AC50 (Cytochrome P450 2C9): 12.6 µM (inconclusive); AC50 (Cytochrome P450 1A2): 15.8 µM (inconclusive) |
|  |  |  | N=C(N)Nc1nc(CCN2C(=O)c3ccccc3C2=O)cs1 | AC50 (Cytochrome P450 2C9): 17.8 µM (inconclusive); AC50 (Cytochrome P450 1A2): 12.6 µM (inconclusive) |
|  | > 53 µM (inactive) | > 47.1 µM (inactive) | COc1c(Cl)cc(Cl)cc1CNc1ccc(S(N)(=O)=O)cc1 |  |
| > 195 µM (not active) |  |  | O=C(Nc1cccc(Cl)c1)N1CCOCC1 |  |
|  | > 53 µM (inactive) | > 47.1 µM (inactive) | COc1ccc(S(=O)(=O)N2CCCCCC2)cc1C(=O)NCCc1ccccc1 |  |
|  | > 53 µM (inactive) | > 47.1 µM (inactive) | O=C(C1CCN(C2CCN(CC3CC=CCC3)CC2)CC1)N1CCOCC1 (centres undefined) |  |
|  |  |  | COc1ccc(C(=O)N/N=C/c2ccccc2OC(=O)c2ccccc2)cc1 | AC50 (INS1): 2.35 µM (active) |
| > 195 µM (not active) | > 53 µM (inactive) | > 47.1 µM (inactive) | Cc1[nH]n(CCC#N)c(=O)c1CC(=O)N1CCN(c2ccccc2)CC1 |  |
| > 195 µM (not active) |  |  | CN(C)c1ccc(/C=N/NC(=O)c2cccc(N3CCCC3=O)c2)cc1 |  |
|  |  |  | Cc1ccc2c(c1)N(C)/C(=C/c1cccc[n+]1CCO)S2 | AC50 (INS1): 4.37 µM (active) |

| Compound | EC50 [1] | EC50 [2] | IC50 [3] | further results |
| --- | --- | --- | --- | --- |
| CC(C)n1cc(CN2CCCC(CNS(=O)(=O)c3cccc4cccnc34)C2)cn1 (centres undefined) | > 195 µM (not active) |  |  | EC50 [4]: > 60 µM (not active); EC50 [5]: 0.798 µM (active) |
